Data: paper PMC10584170, “Machine learning-based phenotypic imaging to characterise the targetable biology of Plasmodium falciparum male gametocytes for the development of transmission-blocking antimalarials” (PLOS Pathogens, 2023)

Columns and labels:
[1] = test system: P. falciparum male gametocytes; experiment: P. falciparum Dual Gamete Formation Assay (PfDGFA), male readout (exflagellation); format: cell-based, Plasmodium falciparum NF54; conditions: for Average inhibition male (%): average of replicates; for % inhibition male (individual replicates) R1: replicate R1; for % inhibition male (individual replicates) R3: replicate R3; for % inhibition male (individual replicates) R4: replicate R4; for Activity: hit = >50% inhibition in male or female readout in at least 3 replicates, 0 = no class assigned
Summary of the method: (§1)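 Day-14 NF54 gametocytes were incubated with compound for 24 h at 37°C under 1% O2/3% CO2/96% N2. Gametogenesis was triggered with ookinete medium (0.1 μM xanthurenic acid) plus Cy3-anti-Pfs25, and exflagellation was imaged by brightfield after cooling to 4°C then 28°C. Females were imaged by Pfs25 fluorescence 24 h later at 28°C.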

[2] = test system: P. falciparum female gametocytes; experiment: P. falciparum Dual Gamete Formation Assay (PfDGFA), female readout (Pfs25-positive female gametes); format: cell-based, Plasmodium falciparum NF54; conditions: for Average inhibition female (%): average of replicates; for % inhibition female (individual replicates) R1: replicate R1; for % inhibition female (individual replicates) R3: replicate R3; for % inhibition female (individual replicates) R4: replicate R4
Summary of the method: as §1

[3] = 2µM, 24h preincubation with gametocytes prior to induction of gametogenesis
[4] = 2µM, 24h preincubation, number of replicates with >50% inhibition in the male readout
[5] = 2µM, 24h preincubation, number of replicates with >50% inhibition in the female readout
[6] = PfDGFA at 2µM, 24h preincubation with gametocytes prior to induction of gametogenesis
[7] = PfDGFA at 2µM, 24h preincubation
[8] = 2µM, 24h preincubation, hits selected on >50% inhibition in the male readout across replicates
[9] = 2µM, 24h preincubation, hits selected on >50% inhibition in the female readout across replicates

With CN(CCc1ccccc1)c1ncc(-c2cccc(CNCCC3CCCN3C)c2)cn1 (stereo not drawn) [TCMDC-133143] the “Average inhibition male (%)” value [1, 3] was 57.0%, the “% inhibition male (individual replicates) R1” value [1, 3] was 66.7% and the “% inhibition male (individual replicates) R3” value [1, 3] was 31.4%. For the same compound, the “% inhibition male (individual replicates) R4” value [1, 3] was 52.9%, the HitlevelM [1, 4] was 3 and the “Average inhibition female (%)” value [2, 3] was 35.0%. For the same compound, the “% inhibition female (individual replicates) R1” value [2, 3] was 22.5%, the “% inhibition female (individual replicates) R3” value [2, 3] was 13.4% and the “% inhibition female (individual replicates) R4” value [2, 3] was 55.4%. For the same compound, the HitlevelF [2, 5] was 1.
For CN1CCCC1CCNCc1cccc(-c2cnc(N3CCCC(C)(C)C3)nc2)c1 (stereo not drawn) [TCMDC-133144], the “Average inhibition male (%)” value [1, 3] was 57.1%, the “% inhibition male (individual replicates) R1” value [1, 3] was 64.8% and the “% inhibition male (individual replicates) R3” value [1, 3] was 37.3%. The “% inhibition male (individual replicates) R4” value [1, 3] was 70.2%, the HitlevelM [1, 4] was 3 and the “Average inhibition female (%)” value [2, 3] was 21.7%. For the same compound, the “% inhibition female (individual replicates) R1” value [2, 3] was 23.0%, the “% inhibition female (individual replicates) R3” value [2, 3] was 21.4% and the “% inhibition female (individual replicates) R4” value [2, 3] was 13.1%. The HitlevelF [2, 5] was 0.
In the case of O=C(Nc1ccsc1)Nc1cccc(-c2ccc(-c3nc4cc(C(F)(F)F)ccc4[nH]3)cc2)c1 [TCMDC-133210], the “% inhibition male (individual replicates) R1” value [1, 6] is reported as -6.9%, the “% inhibition male (individual replicates) R3” value [1, 6] is reported as -21.6% and the “% inhibition male (individual replicates) R4” value [1, 6] is reported as 0.9%. For the same compound, the “Average inhibition male (%)” value [1, 7] was -14.6%, the “% inhibition female (individual replicates) R1” value [2, 6] was 5.3% and the “% inhibition female (individual replicates) R3” value [2, 6] was -25.6%. The “% inhibition female (individual replicates) R4” value [2, 6] was -2.5% and the “Average inhibition female (%)” value [2, 7] was -7.9%.
For CCCCCN1CCCC1CNS(=O)(=O)c1cccc(C(=O)Nc2cccc(C#N)c2)c1.O=C(O)C(F)(F)F (stereo not drawn) [TCMDC-133690], the “% inhibition male (individual replicates) R1” value [1, 6] was -0.3%, the “% inhibition male (individual replicates) R4” value [1, 6] was 15.0% and the “Average inhibition male (%)” value [1, 7] was 7.9%. For the same compound, the “% inhibition female (individual replicates) R1” value [2, 6] was 2.9%, the “% inhibition female (individual replicates) R3” value [2, 6] was -5.0% and the “% inhibition female (individual replicates) R4” value [2, 6] was 6.8%. For the same compound, the “Average inhibition female (%)” value [2, 7] was -0.08%.
With Cl.NCc1ccc(-c2ccc3c(N)nccc3c2)cc1 [TCMDC-133718] the “Average inhibition male (%)” value [1, 3] was 18.4%, the “% inhibition male (individual replicates) R1” value [1, 3] was -0.6% and the “% inhibition male (individual replicates) R3” value [1, 3] was -25.8%. For the same compound, the “% inhibition male (individual replicates) R4” value [1, 3] was 49.6%, the HitlevelM [1, 4] was 1 and the “Average inhibition female (%)” value [2, 3] was 21.1%. The “% inhibition female (individual replicates) R1” value [2, 3] was 11.2%, the “% inhibition female (individual replicates) R3” value [2, 3] was 8.8% and the “% inhibition female (individual replicates) R4” value [2, 3] was 10.1%. It also gave a HitlevelF [2, 5] of 1.
For Cc1cccc(-c2cccc(CNc3nc(NCCc4ccc(O)cc4)nc(N4CCNCC4)n3)c2)c1.O=C(O)C(F)(F)F [TCMDC-133810], the “Average inhibition male (%)” value [1, 3] was -4.6%, the “% inhibition male (individual replicates) R1” value [1, 3] was -4.0% and the “% inhibition male (individual replicates) R3” value [1, 3] was -16.3%. The “% inhibition male (individual replicates) R4” value [1, 3] was 16.2%, the HitlevelM [1, 8] was 0 and the Activity [1, 7] was 0. For the same compound, the “Average inhibition female (%)” value [2, 3] was 7.6%, the “% inhibition female (individual replicates) R1” value [2, 3] was 16.4% and the “% inhibition female (individual replicates) R3” value [2, 3] was -13.0%. For the same compound, the “% inhibition female (individual replicates) R4” value [2, 3] was 18.6% and the HitlevelF [2, 9] was 0.
For CN1CCC(N2CCN(Cc3cccc(-c4ccc(-c5nc6cc(F)ccc6[nH]5)cc4)c3)CC2)CC1.O=C(O)C(F)(F)F [TCMDC-133858], the “Average inhibition male (%)” value [1, 3] was 26.9%, the “% inhibition male (individual replicates) R1” value [1, 3] was 35.0% and the “% inhibition male (individual replicates) R3” value [1, 3] was -5.5%. The “% inhibition male (individual replicates) R4” value [1, 3] was 46.2%, the HitlevelM [1, 8] was 0 and the Activity [1, 7] was 0. The “Average inhibition female (%)” value [2, 3] was 6.0%, the “% inhibition female (individual replicates) R1” value [2, 3] was 1.0% and the “% inhibition female (individual replicates) R3” value [2, 3] was -3.8%. The “% inhibition female (individual replicates) R4” value [2, 3] was 20.5% and the HitlevelF [2, 9] was 0.
In the case of Cc1cccc2nc(-c3ccc(-c4ccc(CN5CCC(N)C5)cc4)s3)[nH]c12.O=C(O)C(F)(F)F (stereo not drawn) [TCMDC-133862], the “Average inhibition male (%)” value [1, 3] is reported as -1.0%, the “% inhibition male (individual replicates) R1” value [1, 3] is reported as -13.8% and the “% inhibition male (individual replicates) R4” value [1, 3] is reported as 7.3%. The HitlevelM [1, 8] was 0, the Activity [1, 7] was 0 and the “Average inhibition female (%)” value [2, 3] was 4.0%. For the same compound, the “% inhibition female (individual replicates) R1” value [2, 3] was 5.8%, the “% inhibition female (individual replicates) R3” value [2, 3] was 5.7% and the “% inhibition female (individual replicates) R4” value [2, 3] was 2.9%. The HitlevelF [2, 9] was 0.
For Cc1cccc2nc(-c3ccc(-c4ccc(CN5CCN(C6CCN(C)CC6)CC5)cc4)s3)[nH]c12.O=C(O)C(F)(F)F [TCMDC-133866], the “Average inhibition male (%)” value [1, 3] was 12.4%, the “% inhibition male (individual replicates) R1” value [1, 3] was 12.8% and the “% inhibition male (individual replicates) R3” value [1, 3] was 24.6%. For the same compound, the “% inhibition male (individual replicates) R4” value [1, 3] was 21.2%, the HitlevelM [1, 4] was 0 and the “Average inhibition female (%)” value [2, 3] was 32.5%. For the same compound, the “% inhibition female (individual replicates) R1” value [2, 3] was 26.9%, the “% inhibition female (individual replicates) R3” value [2, 3] was 41.8% and the “% inhibition female (individual replicates) R4” value [2, 3] was 27.5%. It also gave a HitlevelF [2, 5] of 0.
In the case of NC1CCN(Cc2ccc(-c3ccc(-c4nc5ccccc5[nH]4)cc3)cc2)C1.O=C(O)C(F)(F)F (stereo not drawn) [TCMDC-133868], the “Average inhibition male (%)” value [1, 3] is reported as 53.2%, the “% inhibition male (individual replicates) R1” value [1, 3] is reported as 65.7% and the “% inhibition male (individual replicates) R3” value [1, 3] is reported as 18.3%. For the same compound, the “% inhibition male (individual replicates) R4” value [1, 3] was 71.6%, the HitlevelM [1, 4] was 3 and the “Average inhibition female (%)” value [2, 3] was 15.3%. The “% inhibition female (individual replicates) R1” value [2, 3] was 0.6%, the “% inhibition female (individual replicates) R3” value [2, 3] was -10.8% and the “% inhibition female (individual replicates) R4” value [2, 3] was 34.5%. For the same compound, the HitlevelF [2, 5] was 0.
For NC1CCN(Cc2ccc(-c3ccc(-c4nc5cc(F)ccc5[nH]4)cc3)cc2)C1.O=C(O)C(F)(F)F (stereo not drawn) [TCMDC-133872], the “Average inhibition male (%)” value [1, 3] was 30.9%, the “% inhibition male (individual replicates) R1” value [1, 3] was 32.1% and the “% inhibition male (individual replicates) R3” value [1, 3] was 18.9%. The “% inhibition male (individual replicates) R4” value [1, 3] was 53.6%, the HitlevelM [1, 8] was 1 and the Activity [1, 7] was 0. For the same compound, the “Average inhibition female (%)” value [2, 3] was 9.7%, the “% inhibition female (individual replicates) R1” value [2, 3] was 21.7% and the “% inhibition female (individual replicates) R3” value [2, 3] was 5.5%. For the same compound, the “% inhibition female (individual replicates) R4” value [2, 3] was 3.9% and the HitlevelF [2, 9] was 0.
O=C(O)C(F)(F)F.c1cc(-c2ccc(CN3CCCCC3)cc2)cc(-c2nc3ccccc3[nH]2)c1 [TCMDC-133917] was tested, and the “Average inhibition male (%)” value [1, 3] was 9.6%, the “% inhibition male (individual replicates) R1” value [1, 3] was 7.6% and the “% inhibition male (individual replicates) R3” value [1, 3] was 11.1%. For the same compound, the “% inhibition male (individual replicates) R4” value [1, 3] was 9.5%, the HitlevelM [1, 8] was 0 and the Activity [1, 7] was 0. For the same compound, the “Average inhibition female (%)” value [2, 3] was 7.0%, the “% inhibition female (individual replicates) R1” value [2, 3] was 8.8% and the “% inhibition female (individual replicates) R3” value [2, 3] was -3.2%. For the same compound, the “% inhibition female (individual replicates) R4” value [2, 3] was 28.3% and the HitlevelF [2, 9] was 0.
For Cc1cccc2nc(-c3ccc(-c4cccc(CN5CCC(CCN6CCCCC6)CC5)c4)s3)[nH]c12.O=C(O)C(F)(F)F [TCMDC-133923], the “Average inhibition male (%)” value [1, 3] was 52.7%, the “% inhibition male (individual replicates) R1” value [1, 3] was 48.5% and the “% inhibition male (individual replicates) R3” value [1, 3] was 59.9%. For the same compound, the “% inhibition male (individual replicates) R4” value [1, 3] was 89.6%, the HitlevelM [1, 4] was 2 and the “Average inhibition female (%)” value [2, 3] was 32.1%. For the same compound, the “% inhibition female (individual replicates) R1” value [2, 3] was 30.9%, the “% inhibition female (individual replicates) R3” value [2, 3] was 27.4% and the “% inhibition female (individual replicates) R4” value [2, 3] was 27.6%. It also gave a HitlevelF [2, 5] of 0.
